Results on eight molecules are retold here after ChEMBL document CHEMBL1201862, “PubChem BioAssay data set” (2004).

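These data come from cells grown in 96-well plates and exposed to compound for 48 hours at five concentrations. The concentration for 50% growth inhibition is given as GI50.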 The source made the active and inactive calls. Rule as the data show it: active = GI50 up to about 1.1 µM and inactive = higher. A value given as a limit tells only on which side of the number the result lay.

Among the test systems are Malme-3M; UACC-62; Hs-578T; LOX IMVI; HCT-116; SK-MEL-5; EKVX; IGROV-1; HCC 2998; KM12; SF-295; K562; CCRF-CEM; OVCAR-5; SK-MEL-2; TK-10; MDA-MB-435.
Common to all, as to experiment: NCI tumour cell line growth inhibition, 48 h

`COC(=O)C1=C(C(=O)OC)N(c2ccncc2)C(c2ccco2)=CC1c1ccccc1[N+](=O)[O-]` (stereo unspecified): the GI50 with Malme-3M is 4.55 µM (inactive); in the assay with UACC-62, 9.91 µM (inactive); with Hs-578T it was 5.94 µM (inactive); with LOX IMVI it was 1.72 µM (inactive); in the assay with HCT-116, 1.6 µM (inactive); in the assay on SK-MEL-5 it was 2.39 µM (inactive). Moreover, the GI50 is 6.59 µM (inactive) in the assay on EKVX; 1.95 µM (inactive) in the assay with IGROV-1; 2.03 µM (inactive) in the assay on HCC 2998; 1.6 µM (inactive) in the assay on KM12; 6.19 µM (inactive) in the assay with SF-295; 1.44 µM (inactive) in the assay with K562. Moreover, the GI50 was 2.21 µM (inactive) in the assay on CCRF-CEM; 14.6 µM (inactive) with OVCAR-5; 18.2 µM (inactive) in the assay on SK-MEL-2; 2.75 µM (inactive) with TK-10; 6.15 µM (inactive) in the assay on MDA-MB-435.
For the molecule `O=C1C=C2C(=NC34CCCCC3C(c3ccccc3)C3=C(c5ccccc5CC3)N24)c2ccccc21` (stereo unspecified), the GI50 in the assay on Malme-3M, with UACC-62, in the assay on Hs-578T, with LOX IMVI, in the assay on HCT-116 and in the assay with SK-MEL-5 was > 10 µM (inactive) each time. The GI50 in the assay on EKVX, with IGROV-1, in the assay with HCC 2998, in the assay on KM12, in the assay with SF-295 and in the assay with K562 was > 10 µM (inactive) in each case. Besides, the GI50 in the assay with CCRF-CEM, with OVCAR-5, in the assay on SK-MEL-2, in the assay with TK-10 and with MDA-MB-435 was > 10 µM (inactive) throughout.
With `COC(=O)c1ccc(C)cc1C1CN=NC12Cc1cccc(C)c1C2=O` (stereo unspecified), the GI50 was 27.8 µM (inactive) with Malme-3M; 21 µM (inactive) with UACC-62; 38.3 µM (inactive) in the assay with Hs-578T; 28.6 µM (inactive) with LOX IMVI; 42.3 µM (inactive) with HCT-116; 22.2 µM (inactive) with SK-MEL-5. In addition, the GI50 is 27.6 µM (inactive) in the assay with EKVX; 53.1 µM (inactive) in the assay with IGROV-1; 42.2 µM (inactive) in the assay with HCC 2998; 26.7 µM (inactive) with KM12; 50 µM (inactive) with SF-295; 26.7 µM (inactive) with K562. Further, the GI50 with CCRF-CEM is 31.6 µM (inactive); with OVCAR-5, > 100 µM (inactive); with SK-MEL-2, 23.8 µM (inactive); in the assay with TK-10, > 100 µM (inactive); in the assay on MDA-MB-435 it was 18.9 µM (inactive).
Regarding `COc1ccc(-c2c(C#N)c(N)nc(Sc3ccccc3N)c2C#N)cc1`, the GI50 in the assay on Malme-3M is 10.2 µM (inactive); with UACC-62 it was 9.46 µM (inactive); in the assay on Hs-578T, 6.05 µM (inactive); in the assay with LOX IMVI, 16.8 µM (inactive); with HCT-116, 10.7 µM (inactive); in the assay on SK-MEL-5, 28.6 µM (inactive). The GI50 in the assay with EKVX is 15.7 µM (inactive); in the assay with IGROV-1 it was 10.8 µM (inactive); with HCC 2998, > 43.1 µM (inactive); with KM12 it was 44.9 µM (inactive); with SF-295, 10.2 µM (inactive); in the assay with K562, 32.3 µM (inactive). In addition, the GI50 is > 100 µM (inactive) with CCRF-CEM; > 53.5 µM (inactive) in the assay on OVCAR-5; 9.57 µM (inactive) in the assay on SK-MEL-2; 10.9 µM (inactive) in the assay with TK-10; > 83 µM (inactive) in the assay on MDA-MB-435.
On to `COc1cc(Br)c(CC2C3=C(CCN2C(=O)C2CCC2)CC2(CC3)OCCO2)cc1O` (stereo unspecified), for which the GI50 is 65 µM (inactive) in the assay with Malme-3M; 53.8 µM (inactive) with UACC-62; 33.8 µM (inactive) in the assay on Hs-578T; > 100 µM (inactive) in the assay on LOX IMVI; 72.8 µM (inactive) in the assay with HCT-116; 35.3 µM (inactive) with SK-MEL-5. Moreover, the GI50 was 34.2 µM (inactive) in the assay on EKVX; 58.7 µM (inactive) in the assay on IGROV-1; 28.8 µM (inactive) with HCC 2998; 50.6 µM (inactive) with KM12; 49.7 µM (inactive) with SF-295; 31.6 µM (inactive) in the assay with K562. Further, the GI50 in the assay with CCRF-CEM is 52.6 µM (inactive); with OVCAR-5, > 100 µM (inactive); in the assay with SK-MEL-2, > 100 µM (inactive); in the assay on TK-10 it was 29.2 µM (inactive); in the assay with MDA-MB-435 it was 23.6 µM (inactive).
Take `c1ccc([P+](CCN2Cc3ccccc3C2)(c2ccccc2)c2ccccc2)cc1`: the GI50 in the assay with Malme-3M is 8.59 µM (inactive); in the assay with UACC-62, 2.85 µM (inactive); in the assay on Hs-578T, 12.5 µM (inactive); in the assay on LOX IMVI, 3.84 µM (inactive); with HCT-116, 3 µM (inactive); with SK-MEL-5, 2.04 µM (inactive). For the same molecule, the GI50 in the assay on EKVX was 3.84 µM (inactive); in the assay with IGROV-1 it was 0.368 µM (active); in the assay with HCC 2998 it was 2.94 µM (inactive); in the assay with KM12 it was 3.23 µM (inactive); in the assay with SF-295, 6.92 µM (inactive); with K562, 2.79 µM (inactive). The GI50 in the assay with CCRF-CEM was 2.64 µM (inactive); in the assay with OVCAR-5, 16.6 µM (inactive); in the assay with SK-MEL-2, 2.27 µM (inactive); in the assay on TK-10 it was 10.4 µM (inactive); in the assay on MDA-MB-435 it was 3.58 µM (inactive).
For `N#Cc1cc2c(cc1C#N)SCCSCCCSCCS2`, the GI50 in the assay with Malme-3M is 20.1 µM (inactive); with UACC-62 it was 9.93 µM (inactive); in the assay on Hs-578T, 3.96 µM (inactive); with LOX IMVI, 6.31 µM (inactive); in the assay with HCT-116, 21.3 µM (inactive); with SK-MEL-5, > 100 µM (inactive). For the same molecule, the GI50 was > 48.9 µM (inactive) in the assay on EKVX; 24.7 µM (inactive) in the assay with IGROV-1; > 72.4 µM (inactive) in the assay on HCC 2998; > 100 µM (inactive) with KM12; 5.47 µM (inactive) with SF-295; > 100 µM (inactive) with K562. In addition, the GI50 in the assay with CCRF-CEM was > 48.3 µM (inactive); with OVCAR-5, > 72.3 µM (inactive); in the assay with SK-MEL-2, 17.8 µM (inactive); in the assay with TK-10 it was 2.82 µM (inactive); in the assay with MDA-MB-435, > 100 µM (inactive).
On to `COc1ccc2c(c1)/C(=C\c1c(Cl)nc3sc(C)cn13)C(=O)N2`, for which the GI50 was 2.37 µM (inactive) with Malme-3M; 3.29 µM (inactive) with UACC-62; 2.74 µM (inactive) with Hs-578T; 4.22 µM (inactive) with LOX IMVI; 3.1 µM (inactive) with HCT-116; 2.16 µM (inactive) with SK-MEL-5. For the same molecule, the GI50 with EKVX was 7.59 µM (inactive); in the assay with IGROV-1 it was 3.72 µM (inactive); in the assay on HCC 2998, 6.43 µM (inactive); in the assay with KM12, 1.71 µM (inactive); with SF-295, 1.74 µM (inactive); in the assay on K562, 0.521 µM (active). The GI50 with CCRF-CEM is 1.19 µM (inactive); in the assay with OVCAR-5 it was 9.59 µM (inactive); with SK-MEL-2 it was 2.87 µM (inactive); in the assay with TK-10 it was 6.37 µM (inactive); in the assay on MDA-MB-435, 0.286 µM (active).
